Experimental data reported in patent US20250163057A1, “DCN-1 MODULATING COMPOUNDS AND METHODS OF USE THEREOF” (Cellarity, Inc., priority 2023, published 2025).
Like-named read-outs stand apart in the source and are kept apart here.

What was measured:
[1] = biological target: DCN1 (DCUND1) protein PONY domain (Homo sapiens (Human), UniProt Q96GG9); experiment: TR-FRET assay, DCN1 binding with FAM-labeled probe
Procedure, shortened: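 First, the E. coli-derived PONY domain was biotinylated and paired with streptavidin Tb cryptate. Compounds in 0.1% DMSO were then added to DCN1 and FAM-probe (5 nM/20 nM, or 0.31 nM/900 nM total with 800 nM unlabelled) in TritonX, 200 mM NaCl buffer. Finally, TR-FRET ratios were recorded at 1, 5 and 24 hrs.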

DCN1 protein = DCN1 protein (Homo sapiens (Human), UniProt Q96GG9); experiment: Intact Protein MS Analysis with the RapidFire-TOF System (covalent adduct formation); format: binding; conditions: MS Emax; 400 nM DCN1, 3 hours at room temperature
DCN1 protein, sequence (Q96GG9 whole entry): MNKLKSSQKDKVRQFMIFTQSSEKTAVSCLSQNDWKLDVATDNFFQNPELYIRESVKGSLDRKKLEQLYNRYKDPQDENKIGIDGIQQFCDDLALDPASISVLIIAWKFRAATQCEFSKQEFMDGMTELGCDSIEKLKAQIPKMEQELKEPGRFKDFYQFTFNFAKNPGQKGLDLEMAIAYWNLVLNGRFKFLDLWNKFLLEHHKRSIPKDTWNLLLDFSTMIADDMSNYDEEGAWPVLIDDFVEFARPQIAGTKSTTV
Procedure, shortened: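 Tag-cleaved human DCN1 (400 nM) expressed in E. coli, in 25 mM Tris-HCl, 200 mM NaCl, 1 mM DTT, was incubated with 11 compound concentrations for 3 h at room temperature and quenched with 0.2% formic acid. Intact-protein Q-TOF MS with deconvolution detected the compound adduct mass.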

[2] = tested on: Cullin-3 (CUL3) neddylation; experiment: AlphaLISA assay for Cullin-3 (CUL3) neddylation in TF 1 cells; format: cell-based; conditions: Homo sapiens, TF-1, 3 h, 3 hours treatment
Procedure, shortened: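 TF 1 cells in unsupplemented IMDM treated with compound concentrations for 3 h, then lysed. CUL3 neddylation detected by AlphaLISA (biotinylated anti-NEDD8, anti-CUL3 acceptor beads overnight, streptavidin donor beads 1 h); normalized to vehicle (0%) and 1 μM DI-1548 (100%), IC50 from Hill fits.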

[3] = 24 hr after treatment with compound, read-out: TR FRET IC50 24 hr
[4] = TR FRET IC50 1 hr (nM), 1 hr after treatment with compound
[5] = read-out: TR FRET IC50 1 hr, 1 hr after treatment with compound

DCN1 (DCUND1) protein PONY domain, sequence (Q96GG9 60-248): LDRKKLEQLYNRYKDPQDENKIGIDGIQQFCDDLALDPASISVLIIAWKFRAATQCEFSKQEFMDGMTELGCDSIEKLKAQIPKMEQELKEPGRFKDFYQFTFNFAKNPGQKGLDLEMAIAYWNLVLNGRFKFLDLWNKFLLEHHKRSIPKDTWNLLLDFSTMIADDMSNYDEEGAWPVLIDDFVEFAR

SMILES | IC50 [1, 3] | IC50 [1, 4] | % Adduct Formation (DCN1 protein) | IC50 [2] | IC50 [1, 5]
CCN1C(=O)[C@H](NC(=O)c2cccc(C(F)(F)F)c2)[C@H](c2ccc(F)cc2)c2c(C(=O)N3CCOCC3C#N)nn(-c3ccccc3)c21 (single isomer, unassigned) [Compound I-296] | ≤ 200 nM | 1000 to 3000 nM | ++ (MS Emax % adduct formation greater than 30.0 and less than or equal to 80.0) | ≤ 100 nM | –
CCN1C(=O)[C@@H](NC(=O)c2cccc(C(F)(F)F)c2)[C@@H](c2ccc(F)cc2)c2c(C(=O)N(C)[C@@H](C)C#N)nn(-c3ccccc3)c21 (single isomer, unassigned) [Compound I-300, (4S,5S)—N—((S*)-1-cyanoethyl)-7-ethyl-4-(4-fluorophenyl)-N-methyl-6-oxo-1-phenyl-5-(3-(trifluoromethyl)benzamido)-4,5,6,7-tetrahydro-1H-pyrazolo[3,4-b]pyridine-3-carboxamide] | ≤ 200 nM | ≤ 200 nM | +++ (MS Emax % adduct formation greater than 80.0 and less than or equal to 100.0) | ≤ 100 nM | –
CCN1C(=O)[C@@H](NC(=O)c2cccc(C(F)(F)F)c2)[C@@H](c2ccc(F)cc2)c2c(C(=O)N(C)[C@@H](C#N)CCN(C)C3COC3)nn(-c3ccccc3)c21 (single isomer, unassigned) [Compound I-311] | ≤ 200 nM | – | + (MS Emax % adduct formation greater than or equal to 0.0 and less than or equal to 30.0) | ≤ 100 nM | ≤ 200 nM
CCN(CC#N)C(=O)c1nn(-c2ccccc2)c2c1[C@H](c1ccc(F)cc1)[C@H](NC(=O)c1cccc(C(F)(F)F)c1)C(=O)N2CC (stereo in doubt) [Compound I-283] | ≤ 200 nM | – | +++ (MS Emax % adduct formation greater than 80.0 and less than or equal to 100.0) | ≤ 100 nM | ≤ 200 nM
CCN1C(=O)[C@@H](NC(=O)c2cccc(C(F)(F)F)c2)[C@@H](c2ccc(F)cc2)c2c(C(=O)N(CC#N)C3CC3)nn(-c3ccccc3)c21 (stereo in doubt) [Compound I-284] | ≤ 200 nM | – | +++ (MS Emax % adduct formation greater than 80.0 and less than or equal to 100.0) | ≤ 100 nM | ≤ 200 nM
CCN1C(=O)[C@@H](NC(=O)c2cccc(C(F)(F)F)c2)[C@@H](c2ccc(F)cc2)c2c(C(=O)N(CC#N)CCO)nn(-c3ccccc3)c21 (stereo in doubt) [Compound I-286] | ≤ 200 nM | – | + (MS Emax % adduct formation greater than or equal to 0.0 and less than or equal to 30.0) | ≤ 100 nM | ≤ 200 nM
CCN1C(=O)[C@@H](NC(=O)c2cccc(C(F)(F)F)c2)[C@@H](c2ccc(F)cc2)c2c(C(=O)N(CC#N)CC(=O)OC)nn(-c3ccccc3)c21 (stereo in doubt) [Compound I-287] | ≤ 200 nM | – | +++ (MS Emax % adduct formation greater than 80.0 and less than or equal to 100.0) | ≤ 100 nM | ≤ 200 nM
CCN1C(=O)[C@@H](NC(=O)c2cccc(C(F)(F)F)c2)[C@@H](c2ccc(F)cc2)c2c(C(=O)N(CC#N)CCC(=O)OC)nn(-c3ccccc3)c21 (stereo in doubt) [Compound I-288] | ≤ 200 nM | – | +++ (MS Emax % adduct formation greater than 80.0 and less than or equal to 100.0) | ≤ 100 nM | ≤ 200 nM
CCN1C(=O)[C@H](NC(=O)c2cccc(C(F)(F)F)c2)[C@H](c2ccc(F)cc2)c2c(C(=O)N3CCC[C@H]3C#N)nn(-c3cccc(OCCCN4CC5(COC5)C4)c3)c21 (stereo in doubt) [Compound I-293] | ≤ 200 nM | ≤ 200 nM | +++ (MS Emax % adduct formation greater than 80.0 and less than or equal to 100.0) | ≤ 100 nM | –
C=C(CN1CC2(COC2)C1)C(=O)NCc1nn(-c2ccccc2)c2c1[C@H](c1ccc(F)cc1)[C@H](NC(=O)c1cccc(C(F)(F)F)c1)C(=O)N2CC [Compound I-138] | ≤ 200 nM | – | +++ (MS Emax % adduct formation greater than 80.0 and less than or equal to 100.0) | ≤ 100 nM | ≤ 200 nM
C=C(CN1CC2(COC2)C1)C(=O)NCc1nn(-c2ccccc2)c2c1[C@H](c1ccc(F)cc1)[C@@H](NC(=O)c1cccc(C(F)(F)F)c1)C(=O)N2CC [Compound I-149] | ≤ 200 nM | – | +++ (MS Emax % adduct formation greater than 80.0 and less than or equal to 100.0) | ≤ 100 nM | ≤ 200 nM
CCN1C(=O)[C@@H](NC(=O)c2cccc(C(F)(F)F)c2)[C@@H](c2ccc(F)cc2)c2c(C(=O)N3CC[C@H]3C#N)nn(-c3ccccc3)c21 [Compound I-275] | ≤ 200 nM | – | ++ (MS Emax % adduct formation greater than 30.0 and less than or equal to 80.0) | ≤ 100 nM | ≤ 200 nM
CCN1C(=O)[C@@H](NC(=O)c2cccc(C(F)(F)F)c2)[C@@H](c2ccc(F)cc2)c2c(C(=O)N3CCOC[C@H]3C#N)nn(-c3ccccc3)c21 [Compound I-276] | ≤ 200 nM | 200 to 1000 nM | +++ (MS Emax % adduct formation greater than 80.0 and less than or equal to 100.0) | ≤ 100 nM | –
CCN1C(=O)[C@@H](NC(=O)c2cccc(C(F)(F)F)c2)[C@@H](c2ccc(F)cc2)c2c([C@@H](CF)NC#N)nn(-c3ccccc3)c21 [Compound I-279] | ≤ 200 nM | – | +++ (MS Emax % adduct formation greater than 80.0 and less than or equal to 100.0) | ≤ 100 nM | ≤ 200 nM
CCN1C(=O)[C@@H](NC(=O)c2cccc(C(F)(F)F)c2)[C@@H](c2ccc(F)cc2)c2c(C(=O)N3CCNC[C@@H]3C#N)nn(-c3ccccc3)c21 [Compound I-280] | ≤ 200 nM | – | +++ (MS Emax % adduct formation greater than 80.0 and less than or equal to 100.0) | ≤ 100 nM | ≤ 200 nM
CCN1C(=O)[C@@H](NC(=O)c2cccc(C(F)(F)F)c2)[C@H](c2ccc(F)cc2)c2c(CC(=O)NCC#N)nn(-c3ccccc3)c21 [Compound I-298, N-((4R,5S)-3-(2-((cyanomethyl)amino)-2-oxoethyl)-7-ethyl-4-(4-fluorophenyl)-6-oxo-1-phenyl-4,5,6,7-tetrahydro-1H-pyrazolo[3,4-b]pyridin-5-yl)-3-(trifluoromethyl)benzamide] | 200 to 1000 nM | 200 to 1000 nM | + (MS Emax % adduct formation greater than or equal to 0.0 and less than or equal to 30.0) | 100 to 1000 nM | –
CCN1C(=O)[C@@H](NC(=O)c2cccc(C(F)(F)F)c2)[C@H](c2ccc(F)cc2)c2c(CNC(=O)CC#N)nn(-c3ccccc3)c21 [Compound I-299] | 200 to 1000 nM | – | + (MS Emax % adduct formation greater than or equal to 0.0 and less than or equal to 30.0) | 100 to 1000 nM | ≤ 200 nM
CCN1C(=O)[C@@H](NC(=O)c2cccc(C(F)(F)F)c2)[C@@H](c2ccc(F)cc2)c2c(C(=O)N(CC#N)CC#N)nn(-c3ccccc3)c21 [Compound I-302] | ≤ 200 nM | – | +++ (MS Emax % adduct formation greater than 80.0 and less than or equal to 100.0) | ≤ 100 nM | ≤ 200 nM
CCN1C(=O)[C@@H](NC(=O)c2cccc(C(F)(F)F)c2)C(c2ccc(F)cc2)c2c(C(=O)N(C)C(C)C#N)nn(C3CCOCC3)c21 (some centres unmarked) [Compound I-305] | ≤ 200 nM | – | +++ (MS Emax % adduct formation greater than 80.0 and less than or equal to 100.0) | ≤ 100 nM | ≤ 200 nM
CCN1C(=O)[C@@H](NC(=O)c2cccc(C(F)(F)F)c2)[C@@H](c2ccc(C)cc2)c2c(C(=O)N(C)C(C)C#N)nn(C3CC3)c21 (some centres unmarked) [Compound I-306] | ≤ 200 nM | – | ++ (MS Emax % adduct formation greater than 30.0 and less than or equal to 80.0) | ≤ 100 nM | ≤ 200 nM
CCCn1nc(C(=O)N(C)C(C)C#N)c2c1N(CC)C(=O)[C@@H](NC(=O)c1cccc(C(F)(F)F)c1)[C@H]2c1ccc(F)cc1 (some centres unmarked) [Compound I-307] | ≤ 200 nM | – | +++ (MS Emax % adduct formation greater than 80.0 and less than or equal to 100.0) | ≤ 100 nM | ≤ 200 nM
CCN1C(=O)[C@@H](NC(=O)c2cccc(C(F)(F)F)c2)[C@@H](c2ccc(F)cc2)c2c(C(=O)N(C)[C@H](C#N)CCN3CCOCC3)nn(-c3ccccc3)c21 [Compound I-308] | ≤ 200 nM | – | +++ (MS Emax % adduct formation greater than 80.0 and less than or equal to 100.0) | ≤ 100 nM | ≤ 200 nM
CCN1C(=O)[C@@H](NC(=O)c2cccc(C(F)(F)F)c2)[C@@H](c2ccc(F)cc2)c2c(C(=O)N(C)[C@@H](C#N)CCN3CCOCC3)nn(-c3ccccc3)c21 [Compound I-309] | ≤ 200 nM | – | + (MS Emax % adduct formation greater than or equal to 0.0 and less than or equal to 30.0) | ≤ 100 nM | ≤ 200 nM
